{"source": "BindingDB's records for doi:10.1021/jm00049a010", "about": "(University of Arizona, 1994)"}
{"assay": "Binding affinity at delta opioid receptor in guinea pig brain by [3H]c[D-Pen2, p-Cl-Phe4, D-Pen5]-enkephalin displacement.", "units": {"IC50": "nM"}}
{"smiles": "CC[C@H](C)[C@@H]1NC(=O)[C@H](CCCN=C(N)N)NC(=O)[C@H](CCCN=C(N)N)NC(=O)[C@H](NC(=O)[C@H](Cc2ccccc2)NC(=O)CNC(=O)CNC(=O)[C@@H](N)Cc2ccc(O)cc2)CSSC[C@@H](C(N)=O)NC(=O)[C@@H]2CCCN2C(=O)[C@H](CCCN=C(N)N)NC1=O", "IC50": 1000}
{"smiles": "CC[C@H](C)[C@@H]1NC(=O)[C@H](CCCNC(=N)N)NC(=O)[C@H](CCCNC(=N)N)NC(=O)[C@@H](NC(=O)[C@H](Cc2ccccc2)NC(=O)CNC(=O)CNC(=O)[C@@H](N)Cc2ccc(O)cc2)CSSC[C@@H](C(N)=O)NC(=O)[C@@H]2CCCN2C(=O)[C@H](CCCNC(=N)N)NC1=O", "IC50": 1740}
{"smiles": "CC[C@H](C)[C@@H]1NC(=O)[C@H](CCCN=C(N)N)NC(=O)[C@H](CCCN=C(N)N)NC(=O)[C@@H](NC(=O)[C@H](Cc2ccccc2)NC(=O)CNC(=O)CNC(=O)[C@@H](N)Cc2ccc(O)cc2)C(C)(C)SSC(C)(C)[C@@H](C(N)=O)NC(=O)[C@@H]2CCCN2C(=O)[C@H](CCCN=C(N)N)NC1=O", "IC50": 245}
{"smiles": "CC[C@H](C)[C@@H]1NC(=O)[C@H](CCCN=C(N)N)NC(=O)[C@H](CCCN=C(N)N)NC(=O)[C@@H](NC(=O)[C@H](Cc2ccccc2)NC(=O)CNC(=O)CNC(=O)[C@@H](N)Cc2ccc(O)cc2)CSSC[C@H](C(N)=O)NC(=O)[C@@H]2CCCN2C(=O)[C@H](CCCN=C(N)N)NC1=O", "IC50": 14}
{"smiles": "CC[C@H](C)[C@@H]1NC(=O)[C@H](CCCN=C(N)N)NC(=O)[C@H](CCCN=C(N)N)NC(=O)[C@@H](NC(=O)[C@H](Cc2ccccc2)NC(=O)CNC(=O)CNC(=O)[C@@H](N)Cc2ccc(O)cc2)CSSC(C)(C)[C@@H](C(N)=O)NC(=O)[C@@H]2CCCN2C(=O)[C@H](CCCN=C(N)N)NC1=O", "note": "[Tyr-Gly-Gly-Phe-D-Cys-Arg-Arg-Ile-Arg-Pro-Cys-NH2]", "IC50": 16}
{"smiles": "CC[C@H](C)[C@@H]1NC(=O)[C@H](CCCN=C(N)N)NC(=O)[C@H](CCCN=C(N)N)NC(=O)[C@H](NC(=O)[C@H](Cc2ccccc2)NC(=O)CNC(=O)CNC(=O)[C@@H](N)Cc2ccc(O)cc2)CSSC[C@H](C(N)=O)NC(=O)[C@@H]2CCCN2C(=O)[C@H](CCCN=C(N)N)NC1=O", "note": "[Tyr-Gly-Gly-Phe-D-Cys-Arg-Arg-Ile-Arg-Pro-D-Cys-NH2]", "IC50": 1030}
{"smiles": "CC[C@H](C)[C@@H]1NC(=O)[C@H](CCCN=C(N)N)NC(=O)[C@H](CCCN=C(N)N)NC(=O)[C@H](NC(=O)[C@H](Cc2ccccc2)NC(=O)CNC(=O)CNC(=O)[C@@H](N)Cc2ccc(O)cc2)CSSC(C)(C)[C@H](C(N)=O)NC(=O)[C@@H]2CCCN2C(=O)[C@H](CCCN=C(N)N)NC1=O", "note": "[Tyr-Gly-Gly-Phe-D-Cys-Arg-Arg-Ile-Arg-Pro-D-Pen-NH2]", "IC50": 1370}
{"smiles": "CC[C@H](C)[C@@H]1NC(=O)[C@H](CCCN=C(N)N)NC(=O)[C@H](CCCN=C(N)N)NC(=O)[C@@H](NC(=O)[C@H](Cc2ccccc2)NC(=O)CNC(=O)CNC(=O)[C@@H](N)Cc2ccc(O)cc2)CSSC(C)(C)[C@H](C(N)=O)NC(=O)[C@@H]2CCCN2C(=O)[C@H](CCCN=C(N)N)NC1=O", "note": "[Tyr-Gly-Gly-Phe-D-Cys-Arg-Arg-Ile-Arg-Pro-Pen-NH2]", "IC50": 319}
{"smiles": "CC[C@H](C)[C@@H]1NC(=O)[C@H](CCCN=C(N)N)NC(=O)[C@H](CCCN=C(N)N)NC(=O)[C@@H](NC(=O)[C@H](Cc2ccccc2)NC(=O)CNC(=O)CNC(=O)[C@@H](N)Cc2ccc(O)cc2)C(C)(C)SSC[C@@H](C(N)=O)NC(=O)[C@@H]2CCCN2C(=O)[C@H](CCCN=C(N)N)NC1=O", "note": "[Tyr-Gly-Gly-Phe-D-Pen-Arg-Arg-Ile-Arg-Pro-Cys-NH2]", "IC50": 242}
{"smiles": "CC[C@H](C)[C@@H]1NC(=O)[C@H](CCCN=C(N)N)NC(=O)[C@H](CCCN=C(N)N)NC(=O)[C@H](NC(=O)[C@H](Cc2ccccc2)NC(=O)CNC(=O)CNC(=O)[C@@H](N)Cc2ccc(O)cc2)C(C)(C)SSC[C@H](C(N)=O)NC(=O)[C@@H]2CCCN2C(=O)[C@H](CCCN=C(N)N)NC1=O", "note": "[Tyr-Gly-Gly-Phe-D-Pen-Arg-Arg-Ile-Arg-Pro-D-Cys-NH2]", "IC50": 390}
{"smiles": "CC[C@H](C)[C@@H]1NC(=O)[C@H](CCCN=C(N)N)NC(=O)[C@H](CCCN=C(N)N)NC(=O)[C@H](NC(=O)[C@H](Cc2ccccc2)NC(=O)CNC(=O)CNC(=O)[C@@H](N)Cc2ccc(O)cc2)C(C)(C)SSC(C)(C)[C@H](C(N)=O)NC(=O)[C@@H]2CCCN2C(=O)[C@H](CCCN=C(N)N)NC1=O", "note": "[Tyr-Gly-Gly-Phe-D-Pen-Arg-Arg-Ile-Arg-Pro-D-Pen-NH2]", "IC50": 1910}
{"smiles": "CC[C@H](C)[C@@H]1NC(=O)[C@H](CCCN=C(N)N)NC(=O)[C@H](CCCN=C(N)N)NC(=O)[C@H](NC(=O)[C@H](Cc2ccccc2)NC(=O)CNC(=O)CNC(=O)[C@@H](N)Cc2ccc(O)cc2)C(C)(C)SSC[C@@H](C(N)=O)NC(=O)[C@@H]2CCCN2C(=O)[C@H](CCCN=C(N)N)NC1=O", "note": "[Tyr-Gly-Gly-Phe-D-Pen-Arg-Arg-Ile-Arg-Pro-Pen-NH2]", "IC50": 2000}
{"smiles": "CC[C@H](C)[C@@H]1NC(=O)[C@H](CCCN=C(N)N)NC(=O)[C@H](CCCN=C(N)N)NC(=O)[C@H](NC(=O)[C@H](Cc2ccccc2)NC(=O)CNC(=O)CNC(=O)[C@@H](N)Cc2ccc(O)cc2)C(C)(C)SSC(C)(C)[C@@H](C(N)=O)NC(=O)[C@@H]2CCCN2C(=O)[C@H](CCCN=C(N)N)NC1=O", "note": "[Tyr-Gly-Gly-Phe-Pen-Arg-Arg-Ile-Arg-Pro-Cys-NH2]", "IC50": 1360}
{"smiles": "CC[C@H](C)[C@@H]1NC(=O)[C@H](CCCN=C(N)N)NC(=O)[C@H](CCCN=C(N)N)NC(=O)[C@@H](NC(=O)[C@H](Cc2ccccc2)NC(=O)CNC(=O)CNC(=O)[C@@H](N)Cc2ccc(O)cc2)C(C)(C)SSC(C)(C)[C@H](C(N)=O)NC(=O)[C@@H]2CCCN2C(=O)[C@H](CCCN=C(N)N)NC1=O", "note": "[Tyr-Gly-Gly-Phe-Pen-Arg-Arg-Ile-Arg-Pro-D-Cys-NH2]", "IC50": 717}
{"smiles": "CC[C@H](C)[C@@H]1NC(=O)[C@H](CCCN=C(N)N)NC(=O)[C@H](CCCN=C(N)N)NC(=O)[C@@H](NC(=O)[C@H](Cc2ccccc2)NC(=O)CNC(=O)CNC(=O)[C@@H](N)Cc2ccc(O)cc2)C(C)(C)SSC[C@H](C(N)=O)NC(=O)[C@@H]2CCCN2C(=O)[C@H](CCCN=C(N)N)NC1=O", "note": "[Tyr-Gly-Gly-Phe-Pen-Arg-Arg-Ile-Arg-Pro-D-Pen-NH2]", "IC50": 232}
